Source: the RepoRT retention time repository (doi:10.1021/es4044374)

Experiment: RP, Waters XBridge C18, 50 × 2.1 mm, 3.5 µm, 30 °C, 0.2 mL/min, estimated dead time 0.55 min; A: water + 0.1% formic acid, pH 3; B: methanol + 0.1% formic acid, pH 3; gradient (min/%B) 0/10 4/50 17/95 25/95 25.1/10 30/10
Conditions: stereoisomer not certain

| Structure (SMILES) | LC retention time [min] |
| --- | --- |
| COC(=O)N(OC)c1ccccc1COc1ccn(-c2ccc(Cl)cc2)n1 [Pyraclostrobin] | 13.4 |
| CC(C)c1ccc(NC(=O)N(C)C)cc1 [Isoproturon] | 8.7 |
| O=C(NCCN1CCOCC1)c1ccc(Cl)cc1 [Moclobemide] | 4.5 |
| CCOP(=O)(OCC)Oc1cc(C)nc(C(C)C)n1 [Diazoxon] | 9.5 |
| COc1cc(Cc2cnc(N)nc2N)cc(OC)c1OC [Trimethoprim] | 3.8 |
| CCOC1Oc2ccc(OS(C)(=O)=O)cc2C1(C)C (stereo unspecified) [Ethofumesate] | 10 |
| CN(C)S(N)(=O)=O [N,N-Dimethylsulfamide] | 1.1 |
| CC(O)C(=O)Nc1c(I)c(C(=O)NC(CO)CO)c(I)c(C(=O)NC(CO)CO)c1I (stereo unspecified) [Iopamidol] | 1.2 |
| CC(=O)N(CC(O)CO)c1c(I)c(C(=O)NCC(O)CO)c(I)c(C(=O)NCC(O)CO)c1I (stereo unspecified) [Iohexol] | 1.6 |
| CC(=O)Nc1ccc(S(=O)(=O)Nc2nccs2)cc1 [N4-Acetylsulfathiazole] | 4.1 |
| Cc1cc(=O)[nH]c(C(C)C)n1 [Pyrimidinol] | 3.4 |
| CNC(=O)Nc1ccc(C(C)C)cc1 [Isoproturon-monodemethyl] | 8.6 |
| O=C(O)C(c1ccccc1)C1CCCCN1 (stereo unspecified) [Ritalinic acid] | 4.7 |
| O=c1[nH]sc2ccccc12 [Benzisothiazolone (BIT)] | 5.1 |
| CC(C)c1nc(N(C)S(C)(=O)=O)nc(-c2ccc(F)cc2)c1C=CC(O)CC(O)CC(=O)O (stereo unspecified) [Rosuvastatin] | 9.2 |
| CCOP(=S)(OCC)Oc1nc(Cl)c(Cl)cc1Cl [Chlorpyrifos] | 16 |
| CCOP(=S)(OCC)Oc1cc(C)nc(C(C)C)n1 [Diazinon] | 13 |
| CC(C)NCC(O)COc1cccc2ccccc12 (stereo unspecified) [Propranolol] | 6.6 |
| CN(C)CCCC1(c2ccc(F)cc2)OCc2cc(C#N)ccc21 (stereo unspecified) [Citalopram] | 6.6 |
| CC(C)c1ccc(N)cc1 [4-Isopropylaniline] | 5.2 |
| COc1cc(OC)nc(NC(=O)NS(=O)(=O)c2cc(NC=O)ccc2C(=O)N(C)C)n1 [Foramsulfuron] | 7.8 |
| CCC1OC(=O)C(C)C(OC2CC(C)(OC)C(O)C(C)O2)C(C)C(OC2OC(C)CC(N(C)C)C2O)C(C)(O)CC(C)C(=NOCOCCOC)C(C)C(O)C1(C)O (stereo unspecified) [Roxithromycin] | 10.1 |

| Structure (SMILES) | LC retention time [min] |
| --- | --- |
| CCCCC(=O)N(Cc1ccc(-c2ccccc2-c2nn[nH]n2)cc1)C(C(=O)O)C(C)C (stereo unspecified) [Valsartan] | 11.2 |
| CCc1ccc(C(=O)NN(C(=O)c2cc(C)cc(C)c2)C(C)(C)C)cc1 [Tebufenozide] | 12.4 |
| CCc1cccc(CC)c1N(COC)C(=O)C(=O)O [Alachlor OXA] | 7.4 |
| CC(C)c1nc(CN(C)C(=O)NC(C(=O)NC(Cc2ccccc2)CC(O)C(Cc2ccccc2)NC(=O)OCc2cncs2)C(C)C)cs1 (stereo unspecified) [Ritonavir] | 13.6 |
| CC1COC(Cn2cncn2)(c2ccc(Oc3ccc(Cl)cc3)cc2Cl)O1 (stereo unspecified) [Difenoconazole] | 14.1 |
| CC(C)(Oc1ccc(Cl)cc1)C(=O)O [Clofibric acid] | 10 |
| O=C(Nc1ccc(F)cc1F)c1cccnc1Oc1cccc(C(F)(F)F)c1 [Diflufenican] | 14.4 |
| CC(=O)Nc1c(C)n(C)n(-c2ccccc2)c1=O [4-Acetamidoantipyrine] | 3.7 |
| CC(Cc1ccc(C(C)(C)C)cc1)CN1CCCCC1 (stereo unspecified) [Fenpropidin] | 9.5 |
| CCNc1nc(Cl)nc(NCC)n1 [Simazine] | 6.9 |
| O=c1[nH]cc(F)c(=O)[nH]1 [5-Fluorouracil] | 1 |
| COc1c(Cl)ccc(Cl)c1C(=O)O [Dicamba] | 7 |
| CSc1nc(NC2CC2)nc(NC(C)(C)C)n1 [Irgarol] | 9.2 |
| Oc1ccc(C(F)(F)F)cc1 [4-Trifluoromethylphenol] | 8.9 |
| NC(=O)c1c(Cl)cccc1Cl [2,6-Dichlorobenzamide] | 4 |
| O=C(O)CNS(=O)(=O)C(F)(F)C(F)(F)C(F)(F)C(F)(F)C(F)(F)C(F)(F)C(F)(F)C(F)(F)F [Perfluorooctane sulfonamidoacetic acid] | 15.9 |
| CC(C)c1c(C(=O)Nc2ccccc2)c(-c2ccccc2)c(-c2ccc(F)cc2)n1CCC(O)CC(O)CC(=O)O (stereo unspecified) [Atorvastatin] | 12.4 |
| CC(CN(C)C)CN1c2ccccc2CCc2ccccc21 (stereo unspecified) [Trimipramine] | 8.7 |
| CCCCCCCCCC[N+](C)(C)[O-] [DDAO] | 10.4 |
| CN1CCN(C2=Nc3cc(Cl)ccc3Nc3ccccc32)CC1 [Clozapine] | 6.4 |
| CC(=O)Nc1c(I)c(C(=O)O)c(I)c(C(=O)NCCO)c1I [Ioxitalamic acid] | 1.3 |
| CCc1cc(C)cc(CC)c1-c1c(OC(=O)C(C)(C)C)n2n(c1=O)CCOCC2 [Pinoxaden] | 13.7 |

| Structure (SMILES) | LC retention time [min] |
| --- | --- |
| CC(C)(C)c1n[nH]c(=O)n(N)c1=O [Metribuzin-diketo] | 5.9 |
| O=C(Nc1ccccc1-c1ccc(Cl)cc1)c1cccnc1Cl [Boscalid] | 10.5 |
| CNC(C)C(=O)c1ccc(C)cc1 (stereo unspecified) [Mephedrone] | 4.3 |
| COCC(=O)Nc1c(I)c(C(=O)NCC(O)CO)c(I)c(C(=O)N(C)CC(O)CO)c1I (stereo unspecified) [Iopromide] | 2.7 |
| CCNc1nc(NC(C)(C)C)nc(SC)n1 [Terbutryn] | 8.5 |
| CC(C)(C)C(O)(CCc1ccc(Cl)cc1)Cn1cncn1 (stereo unspecified) [Tebuconazole] | 12.8 |
| CNCCC(Oc1ccccc1C)c1ccccc1 (stereo unspecified) [Atomoxetine] | 8 |
| C=C1CC2C(CCC3(C)C(=O)CCC23)C2(C)C=CC(=O)C=C12 (stereo unspecified) [Exemestane] | 10.1 |
| CC1CC2C3CCC4=CC(=O)C=CC4(C)C3(F)C(O)CC2(C)C1(O)C(=O)CO (stereo unspecified) [Dexamethasone] | 9.5 |
| N#Cc1nn(-c2c(Cl)cc(C(F)(F)F)cc2Cl)c(N)c1SC(F)(F)F [Fipronil-sulfide] | 13 |
| NC(=O)N1c2ccccc2C=Cc2ccccc21 [Carbamazepine] | 7.8 |
| CCNC(=O)NC(=O)C(C#N)=NOC [Cymoxanil] | 5.6 |
| Nc1ccc(S(=O)(=O)Nc2ccccn2)cc1 [Sulfapyridine] | 2.9 |
| CC(C)NCC(O)COc1ccc(CC(N)=O)cc1 (stereo unspecified) [Atenolol] | 2 |
| COCC(=O)N(c1c(C)cccc1C)C(C)C(=O)OC (stereo unspecified) [Metalaxyl] | 8.7 |
| COC=C(C(=O)OC)c1ccccc1Oc1cc(Oc2ccccc2C#N)ncn1 [Azoxystrobin] | 9.9 |
| CCOC(=O)NCCOc1ccc(Oc2ccccc2)cc1 [Fenoxycarb] | 12.6 |
| N#Cc1c(Cl)cccc1Cl [Dichlobenil] | 8.5 |
| CCCN(CCC)C(=O)SCc1ccccc1 [Prosulfocarb] | 14.4 |
| N#Cc1c[nH]cc1-c1cccc2c1OC(F)(F)O2 [Fludioxonil] | 10.7 |
| CCC(C)c1cc([N+](=O)[O-])cc([N+](=O)[O-])c1O (stereo unspecified) [Dinoseb] | 13 |
| CCNc1nc(N)nc(Cl)n1 [Atrazine-desisopropyl] | 4.3 |

| Structure (SMILES) | LC retention time [min] |
| --- | --- |
| CNC(=O)ON=C(C)SC [Methomyl] | 3.6 |
| CCN(CC(=O)O)S(=O)(=O)C(F)(F)C(F)(F)C(F)(F)C(F)(F)C(F)(F)C(F)(F)C(F)(F)C(F)(F)F [N-Ethylperfluorooctane sulfonamidoacetic acid] | 16.9 |
| Cc1c(NC=O)c(=O)n(-c2ccccc2)n1C [4-Formylaminoantipyrine] | 3.7 |
| FC(F)(F)c1cccc(N2CCNCC2)c1 [1-(3-(Trifluoromethyl)phenyl)piperazine] | 5.9 |
| COc1ccc(CCN(C)CCCC(C#N)(c2ccc(OC)c(OC)c2)C(C)C)cc1OC (stereo unspecified) [Verapamil] | 7.3 |
| N#Cc1nn(-c2c(Cl)cc(C(F)(F)F)cc2Cl)c(N)c1S(=O)C(F)(F)F (stereo unspecified) [Fipronil] | 12.6 |
| CCc1cccc(C)c1N(C(=O)C(=O)O)C(C)COC (stereo unspecified) [Metolachlor OXA] | 9.3 |
| CN1C2CCC1C(C(=O)O)C(OC(=O)c1ccccc1)C2 (stereo unspecified) [Benzoylecgonine] | 4.6 |
| CCNc1nc(Cl)nc(NC(C)CC)n1 (stereo unspecified) [Sebuthylazine] | 9.8 |
| O=C(O)C=C(F)C(F)(F)C(F)(F)C(F)(F)C(F)(F)C(F)(F)F [6:2 fluorotelomer unsaturated carboxylic acid] | 13.6 |
| CC(Oc1ccc(Oc2ccc(C(F)(F)F)cn2)cc1)C(=O)O (stereo unspecified) [Fluazifop] | 10.9 |
| CN(C)C(=N)N=C(N)N [Metformin] | 0.8 |
| CNCC(c1ccc(OC)cc1)C1(O)CCCCC1 (stereo unspecified) [N-Desmethylvenlafaxine] | 6.3 |
| CC(C)(c1ccc(O)cc1)c1ccc(O)cc1 [Bisphenol A] | 14 |
| NC(=O)Nc1ccc(Cl)c(Cl)c1 [Diuron-desdimethyl] | 8.3 |
| NS(=O)(=O)c1cc(C(=O)O)c(NCc2ccco2)cc1Cl [Furosemide] | 6.8 |
| O=c1ccn(C2OC(CO)C(O)C2(F)F)c(=O)[nH]1 (stereo unspecified) [2',2'-Difluoro-2'-deoxyuridine] | 1.7 |
| COCCc1ccc(OCC(O)CNC(C)C)cc1 (stereo unspecified) [Metoprolol] | 5.1 |
| CC(C)N1C(=O)c2ccccc2NS1(=O)=O [Bentazone] | 7.5 |
| CCC(=O)C(CC(C)N(C)C)(c1ccccc1)c1ccccc1 (stereo unspecified) [Methadone] | 8.4 |
